From patent US20220298135A1, “5-HETEROARYL-PYRIDIN-2-AMINE COMPOUNDS AS NEUROPEPTIDE FF RECEPTOR ANTAGONISTS” (Domain Therapeutics, priority 2019, published 2022)
pIC50: −log10 of the molar value.

How the values were obtained:
[1] = target: T1, human NPFFR1 (hNPFFR1) receptor (Homo sapiens, UniProt Q9GZQ6); test: Human NPFFR1 evaluation using BRET biosensors (antagonist IC50); type: cell-based; details: hNPFFR1 transiently over-expressed in HEK-293 T cells; BRET signal; stimulation by EC80 RFRP-3
T1 construct: expressed in transfected cells; host or cells: HEK-293 T cells, transient co-transfection with polyethylenimine
T1 sequence (Q9GZQ6 whole entry): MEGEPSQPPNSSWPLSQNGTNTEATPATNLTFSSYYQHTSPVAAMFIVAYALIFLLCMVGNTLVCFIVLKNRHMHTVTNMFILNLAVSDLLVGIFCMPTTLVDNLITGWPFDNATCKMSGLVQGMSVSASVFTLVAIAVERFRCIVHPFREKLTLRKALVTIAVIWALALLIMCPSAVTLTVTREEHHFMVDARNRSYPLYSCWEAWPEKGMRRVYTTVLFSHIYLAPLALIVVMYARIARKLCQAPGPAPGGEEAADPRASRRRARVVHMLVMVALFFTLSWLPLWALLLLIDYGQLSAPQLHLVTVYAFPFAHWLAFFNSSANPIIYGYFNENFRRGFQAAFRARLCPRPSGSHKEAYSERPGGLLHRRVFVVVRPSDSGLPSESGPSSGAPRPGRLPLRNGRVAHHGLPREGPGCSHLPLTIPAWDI
Experimental: Compounds of the present invention were tested successively for their agonist and antagonist activities on human NPFFR1 (hNPFFR1) receptor transiently over-expressed in HEK-293 T cells. Compounds exert agonist activity if, by themselves in absence of neuropeptide RFRP-3 (also named NPVF) they activate hNPFFR1; and they exert antagonist activity if they decrease the action of RFRP-3 on the receptor.
The assay used to measure compound activity is based on BRET (Bioluminescence Resonance Energy Transfer) biosensors and is designed to monitor the plasma membrane translocation of protein that interacts with specific Ga subunit. The specific effector (luciferase tagged: BRET donor) recruited at the membrane will be in close proximity to a plasma membrane anchor (GFP tagged: BRET acceptor) to induce a BRET signal. Biosensors are described in the patent application WO 2016/041093 A1 (Biosensors for monitoring biomolecule localization and trafficking in cells).
HEK-293 T cells are maintained in Dulbecco's Modified Eagle's Medium supplemented with 10% Foetal Calf Serum, 1% Penicillin/Streptomycin at 37° C./5% CO2.
Cells are co-transfected using polyethylenimine (25 kDa linear) with four DNA plasmids encoding: hNPFFR1, GαoB, a Gi family specific intracellular effector fused to luciferase (BRET donor), a plasma membrane effector fused to GFP (BRET acceptor). After transfection, cells are cultured for 48 h at 37° C./5% CO2.
Receptor activity is detected by changes in BRET signal.
On the day of the assay, cells are detached using trypsin 0.05%, resuspended in assay buffer (1.8 mM CaCl2, 1 mM MgCl2, 2.7 mM KCl, 137 mM NaCl, 0.4 mM NaH2PO4, 5.5 mM D-Glucose, 11.9 mM NaHCO3, 25 mM Hepes) and seeded in 384 well plate at a density of 20,000 cells per well. Then, plates are equilibrated 3.5 hours at 37° C. before adding compounds.
Compounds and luciferase substrate are added to the cells using an automated device (Freedom Evo®, Tecan) and BRET readings are collected on EnVision (PerkinElmer) with specific filters (410 nm BW 80 nm, 515 nm BW 30 nm).
Agonist and antagonist activities of compounds are consecutively evaluated on the same cell plate. Agonist activity is first measured after 10 minutes incubation with compound alone on the cells. Then, cells are stimulated by an EC80 RFRP-3 concentration and luminescence is recorded for additional 10 minutes. EC80 RFRP-3 concentration is the concentration giving 80% of the maximal RFRP-3 response. Agonist or antagonist activities are evaluated in comparison to basal signals evoked by assay buffer or EC80 RFRP-3 alone, respectively.
For IC50 determination, a dose-response test is performed using 20 concentrations (ranging over 6 logs) of each compound. Dose-response curves are fitted using the sigmoidal dose-response (variable slope) analysis in GraphPad Prism software (GraphPad Software) and IC50 of antagonist activity is calculated. Dose-response experiments are performed in duplicate, in two independent experiments.

Structure (SMILES)	pIC50 [1]	melting point
CCc1nc(N)ccc1-c1cccc2ccc(N3CCCC3)nc12.Cl [Example 131, 6-ethyl-5-(2-(pyrrolidin-1-yl)quinolin-8-yl)pyridin-2-amine]	6.00 to 7.00	> 250 °C
Cc1nc(N)ccc1-c1cccc2cccnc12.Cl [Example 3, 6-Methyl-5-quinolin-8-yl-pyridin-2-ylamine]	6.00 to 7.00	> 250 °C
CCc1nc(N)ccc1-c1cccc2c1OCCC2.Cl [Example 66, 5-(chroman-8-yl)-6-ethylpyridin-2-amine]	> 7.00	180 to 192 °C
CCc1nc(N)ccc1-c1c(C(N)=O)ccc2cccnc12.Cl [Example 152, 8-(6-amino-2-ethylpyridin-3-yl)quinoline-7-carboxamide]	< 6.00	150 to 164 °C
CCc1nc(N)ccc1-c1c(OC)ccc2cccnc12.Cl [Example 98, 6-ethyl-5-(7-methoxyquinolin-8-yl)pyridin-2-amine]	> 7.00	230 to 250 °C
Nc1ccc(-c2cnn3ccccc23)c(N)n1 [Example 19, 3-Pyrazolo[1,5-a]pyridin-3-ylpyridine-2,6-diamine]	< 6.00	195 to 200 °C
Cl.Nc1ccc(-c2c(F)ccc3cccnc23)c(CCCC(F)(F)F)n1 [Example 71, 5-(7-fluoroquinolin-8-yl)-6-(4,4,4-trifluorobutyl)pyridin-2-amine]	> 7.00	70 to 130 °C
CN1Cc2c(cccc2-c2ccc(N)nc2N)C1=O [Example 27, 4-(2,6-Diamino-3-pyridyl)-2-methyl-isoindolin-1-one]	< 6.00	> 250 °C
CC(C)(C)OC(=O)n1cc(-c2ccc(N)nc2N)c2ccccc21 [Example 17, Tert-butyl 3-(2,6-diamino-3-pyridyl)indole-1-carboxylate]	< 6.00	150 to 154 °C
Cl.Cn1nccc1-c1ccccc1-c1ccc(N)nc1N [Example 48, 3-(2-(1-methyl-1H-pyrazol-5-yl)phenyl)pyridine-2,6-diamine]	< 6.00	> 250 °C
CCc1nc(N)ccc1-c1cccc2nccnc12.Cl [Example 101, 6-ethyl-5-(quinoxalin-5-yl)pyridin-2-amine]	6.00 to 7.00	> 250 °C
Cl.Nc1ccc(-c2cccc3c2OCCO3)c(N)n1 [Example 38, 3-(2,3-Dihydro-benzo[1,4]dioxin-5-yl)-pyridine-2,6-diamine]	6.00 to 7.00	99 to 110 °C
CCc1nc(N)ccc1-c1cccc2ccc(C)nc12.Cl [Example 90, 6-ethyl-5-(2-methylquinolin-8-yl)pyridin-2-amine]	> 7.00	110 to 150 °C
CCc1nc(N)ccc1-c1cccc2ccc(N3CCCOCC3)nc12.Cl [Example 133, 5-(2-(1,4-oxazepan-4-yl)quinolin-8-yl)-6-ethylpyridin-2-amine]	> 7.00	50 to 90 °C
CCc1nc(N)ccc1-c1c(F)ccc2cccnc12.Cl [Example 65, 6-ethyl-5-(7-fluoroquinolin-8-yl)pyridin-2-amine]	> 7.00	150 to 195 °C
CCc1nc(N)ccc1-c1c(F)ccc2c1OCCC2.Cl [Example 176, 6-ethyl-5-(7-fluorochroman-8-yl)pyridin-2-amine]	> 7.00	85 to 95 °C
Cl.Cn1ncc2cccc(-c3ccc(N)nc3N)c21 [Example 26, 3-(1-Methylindazol-7-yl)pyridine-2,6-diamine]	6.00 to 7.00	198 to 204 °C
Cl.Nc1ccc(-c2csc3ccccc23)c(C2CC2)n1 [Example 13, 5-Benzo[b]thiophen-3-yl-6-cyclopropyl-pyridin-2-ylamine]	6.00 to 7.00	210 to 220 °C

Structure (SMILES)	pIC50 [1]	melting point
Cl.Nc1ccc(-c2c(F)ccc3cccnc23)c(N)n1 [Example 57, 3-(7-fluoroquinolin-8-yl)pyridine-2,6-diamine]	> 7.00	190 to 220 °C
CCc1nc(N)ccc1-c1cccc2ccc(C(=O)N3CCCOCC3)nc12.Cl [Example 167, (8-(6-amino-2-ethylpyridin-3-yl)quinolin-2-yl)(1,4-oxazepan-4-yl)methanone]	> 7.00	120 to 131 °C
Cl.Nc1ccc(-c2ccccc2-c2cccnc2)c(N)n1 [Example 45, 3-[2-(3-pyridyl)phenyl]pyridine-2,6-diamine]	6.00 to 7.00	100 to 135 °C
CCc1nc(N)ccc1-c1cccc2ccc(N3CCOCC3)nc12.Cl [Example 129, 6-ethyl-5-(2-morpholinoquinolin-8-yl)pyridin-2-amine]	> 7.00	100 to 150 °C
Nc1ccc(-c2ccnc3ccccc23)c(N)n1 [Example 35, 3-Quinolin-4-yl-pyridine-2,6-diamine]	< 6.00	> 250 °C
CCc1nc(N)ccc1-c1c(F)c(F)cc2cc(O)cnc12.Cl [Example 112, 8-(6-amino-2-ethylpyridin-3-yl)-6,7-difluoroquinolin-3-ol]	6.00 to 7.00	204 to 210 °C
Nc1ccc(-c2cccc3cnccc23)c(N)n1 [Example 33, 3-(5-Isoquinolyl)pyridine-2,6-diamine]	6.00 to 7.00	> 250 °C
CCc1nc(N)ccc1-c1c(F)ccc2c1OCCCC2.Cl [Example 179, 6-ethyl-5-(8-fluoro-2,3,4,5-tetrahydrobenzo[b]oxepin-9-yl)pyridin-2-amine]	> 7.00	47 to 65 °C
CCc1nc(N)ccc1-c1ccccc1-c1ccc(OC)nc1 [Example 89, 6-ethyl-5-(2-(6-methoxypyridin-3-yl)phenyl)pyridin-2-amine]	6.00 to 7.00	165 to 180 °C
CCc1nc(N)ccc1-c1cccc2c1NC(=O)C2.Cl [Example 163, 7-(6-amino-2-ethylpyridin-3-yl)indolin-2-one]	6.00 to 7.00	> 250 °C
Cc1ccc2ccc(F)c(-c3ccc(N)nc3N)c2n1.Cl [Example 23, 3-(7-fluoro-2-methylquinolin-8-yl)pyridine-2,6-diamine]	> 7.00	130 to 170 °C
CCc1nc(N)ccc1-c1cccc2ccc(C3(C)CC3)nc12.Cl [Example 120, 6-ethyl-5-(2-(1-methylcyclopropyl)quinolin-8-yl)pyridin-2-amine]	6.00 to 7.00	90 to 95 °C
CCc1nc(N)ccc1-c1cccc2ccc(C(=O)NCc3ccccc3)nc12.Cl [Example 174, 8-(6-amino-2-ethylpyridin-3-yl)-N-benzylquinoline-2-carboxamide]	> 7.00	102 to 114 °C
CCc1nc(N)ccc1-c1cccc2ccc(C(=O)N3CCOCC3)nc12.Cl [Example 166, (8-(6-amino-2-ethylpyridin-3-yl)quinolin-2-yl)(morpholino)methanone]	> 7.00	130 to 135 °C
CCc1nc(N)ccc1-c1cccc2ccc(N3CCC(F)(F)CC3)nc12.Cl [Example 132, 5-(2-(4,4-difluoropiperidin-1-yl)quinolin-8-yl)-6-ethylpyridin-2-amine]	> 7.00	120 to 141 °C
CCc1nc(N)ccc1-c1c(F)cc(F)c2cc(F)cnc12.Cl [Example 145, 6-ethyl-5-(3,5,7-trifluoroquinolin-8-yl)pyridin-2-amine]	> 7.00	110 to 120 °C
CCc1nc(N)ccc1-c1cccc2ccc(=O)n(C)c12.Cl [Example 156, 8-(6-amino-2-ethylpyridin-3-yl)-1-methylquinolin-2(1H)-one]	< 6.00	132 to 145 °C
Cn1cc(-c2ccc(N)nc2N)c2ccccc21 [Example 16, 3-(1-Methylindol-3-yl)pyridine-2,6-diamine]	< 6.00	47 to 55 °C
